Counter-ions that a name gives are not always drawn. Like-named read-outs stand apart in the source and are kept apart here.
Tests used:
[1] = test system: mouse bone-marrow derived macrophages; assay: CSF-1-driven mouse bone-marrow derived macrophages assay (BrDU incorporation); format: cell-based; conditions: CSF-1-driven proliferation, 30 hrs culture
Description: Macrophages were derived by culturing mouse bone marrow in alpha-MEM supplemented with 10% FCS and 50 ng/ml recombinant mouse CSF-1 in bacteriologic dishes. On the sixth day, macrophages were detached from dishes, washed, and resuspended to 0.05 million cells/ml in alpha-MEM containing 10% FCS. One hundred ul of cell suspension were distributed per well into 96 well culture plates. Wells were further supplemented with the addition of 50 ul media containing 15 ng/ml CSF-1, 3 uM Indomethacin, and 3× of a dilution series of test compounds. The cells were cultured for 30 hrs at 37 degrees and 5% CO2. During the final six hours, cultures were supplemented with an additional 30 ul of media containing a 1:500 dilution of bromodeoxyuridine (BrDU). At the end of the culture period, the plates were spun at 1000 RPM for 1 minute and 130 ul of media was removed with a pipet and replaced with 150 ul of fixative solution for 1 hour@room temperature. The fixative was then dispelled from the plates and the plates allowed to air dry. Incorporation of BrDU into the fixed, dried cells was quantified using a specific ELISA.

[2] = target: c-fms (Homo sapiens (Human), UniProt P07333); assay: Autophosphorylation fluorescence polarization competition immunoassay for c-fms inhibition; format: biochemical; conditions: 10 nM c-fms, 1 mM ATP; average of three independent measurements
Chain of c-fms (P07333 20-972): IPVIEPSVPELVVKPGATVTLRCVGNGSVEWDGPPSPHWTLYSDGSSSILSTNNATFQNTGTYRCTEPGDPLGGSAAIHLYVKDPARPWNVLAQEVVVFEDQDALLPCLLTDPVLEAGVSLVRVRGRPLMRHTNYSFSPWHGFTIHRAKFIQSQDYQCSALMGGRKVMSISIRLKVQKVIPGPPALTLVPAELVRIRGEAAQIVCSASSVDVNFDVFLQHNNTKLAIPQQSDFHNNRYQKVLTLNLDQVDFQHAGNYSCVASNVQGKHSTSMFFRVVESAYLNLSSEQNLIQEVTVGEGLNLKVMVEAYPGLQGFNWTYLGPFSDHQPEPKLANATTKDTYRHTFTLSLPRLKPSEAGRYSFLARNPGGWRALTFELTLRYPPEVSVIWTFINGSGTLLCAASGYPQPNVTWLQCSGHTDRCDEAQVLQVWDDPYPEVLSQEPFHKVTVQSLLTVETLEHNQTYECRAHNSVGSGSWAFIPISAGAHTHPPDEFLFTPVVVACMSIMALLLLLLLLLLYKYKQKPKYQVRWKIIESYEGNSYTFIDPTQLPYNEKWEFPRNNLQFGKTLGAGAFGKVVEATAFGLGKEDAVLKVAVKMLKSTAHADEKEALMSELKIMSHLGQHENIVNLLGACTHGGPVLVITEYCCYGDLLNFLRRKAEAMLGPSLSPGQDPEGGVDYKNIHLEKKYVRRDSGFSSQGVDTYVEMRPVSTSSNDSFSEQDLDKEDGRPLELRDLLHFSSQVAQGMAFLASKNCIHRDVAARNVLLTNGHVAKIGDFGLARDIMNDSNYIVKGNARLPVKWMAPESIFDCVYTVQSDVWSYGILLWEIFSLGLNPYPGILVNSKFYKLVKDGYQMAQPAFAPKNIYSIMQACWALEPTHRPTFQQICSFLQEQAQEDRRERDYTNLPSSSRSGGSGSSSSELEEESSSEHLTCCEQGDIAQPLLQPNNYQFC
Description: The assay buffer used was 100 mM 4-(2-hydroxyethyl)piperazine1-ethanesulfonic acid (HEPES), pH 7.5, 1 mM 1,4-dithio-DL-threitol (DTT), 0.01% (v/v) Tween-20. Compounds were diluted in assay buffer containing 4% dimethylsulfoxide (DMSO) just prior to the assay. […] The kinase reaction was initiated by adding 2 μL of 5 mM ATP (Sigma) in assay buffer. The final concentrations in the assay were 10 nM c-fms, 1 mM ATP, 5 mM MgCl2, 2% DMSO. Control reactions were ran in each plate: in positive and negative control wells, assay buffer (made 4% in DMSO) was substituted for the compound; in addition, positive control wells received 1.2 μL of 50 mM ethylenediaminetetraaceticacid (EDTA). The plates were incubated at room temperature for 45 min. At the end of the incubation, the reaction was quenched with 1.2 μL of 50 mM EDTA (EDTA was not added to the positive control wells at this point; see above). Following a 5-min incubation, each well received 10 μL of a 1:1:3 mixture of anti-phosphotyrosine antibody, 10×, PTK green tracer, 10× (vortexed), FP dilution buffer, respectively (all from PanVera, cat. # P2837). The plate was covered, incubated for 30 min at room temperature and the fluorescence polarization was read on the Analyst. The instrument settings were: 485 nm excitation filter; 530 nm emission filter; Z height: middle of well; G factor: 0.93. […] The reported IC50 values are averages of three independent measurements.

Compound	IC50 ([1]; Mus musculus, BMDM) [nM]	IC50 [2] [nM]	IC50 ([1]; read-out: BMDM IC50) [nM]
CC1(C)CC=C(c2cc([C@@H]3C[C@@]4(C)O[C@@](C)(C3)[C@H](O)[C@@H]4O)ccc2NC(=O)c2nc(C#N)c[nH]2)CC1 [Example 13, 4-Cyano-1H-imidazole-2-carboxylic acid[4-(3-endo)-(6-exo,7-exo-dihydroxy-1,5-dimethyl-8-oxa-bicyclo[3.2.1]oct-3-yl)-2-(4,4-dimethyl-cyclohex-1-enyl)-phenyl]-amide]	2.9	0.81	–
CC1(C)CC=C(c2cc([C@@]3(O)CC4C=C[C@H](C3)O4)ccc2NC(=O)c2nc(C#N)c[nH]2)CC1 [Example 27, 4-Cyano-N-(2-(4,4-dimethylcyclohex-1-enyl)-4-((3-exo)-3-hydroxy-8-oxabicyclo[3.2.1]oct-6-en-3-yl)phenyl)-1H-imidazole-2-carboxamide]	6.9	0.66	–
C[C@]12CC(c3ccc(NC(=O)c4nc(C#N)c[nH]4)c(C4=CCCCC4)n3)C[C@](C)(O1)[C@H](O)[C@@H]2O (stereo partly drawn) [Example 19, 4-Cyano-1H-imidazole-2-carboxylic acid[2-cyclohex-1-enyl-6-[(3-exo)-(6-exo,7-exo-dihydroxy-1,5-dimethyl-8-oxa-bicyclo[3.2.1]oct-3-yl]-pyridin-3-yl]-amidetrifluoroacetic acid salt and 4-Cyano-1H-imidazole-2-carboxylic acid[2-cyclohex-1-enyl-6-[(3-endo)-(6-exo,7-exo-dihydroxy-1,5-dimethyl-8-oxa-bicyclo[3.2.1]oct-3-yl]-pyridin-3-yl]-amidetrifluoroacetic acid salt]	27	2.9	–
CC1(C)CC=C(c2cc([C@H]3C[C@]4(CO)CC[C@](CO)(C3)O4)ccc2NC(=O)c2nc(C#N)c[nH]2)CC1 [Example 4, 4-Cyano-1H-imidazole-2-carboxylic acid[4-[(3-exo)-1,5-bis-hydroxymethyl-8-oxa-bicyclo[3.2.1]oct-3-yl]-2-(4,4-dimethyl-cyclohex-1-enyl)-phenyl]-amide]	6.6	0.72	–
COC[C@@]12CC[C@@](COC)(C[C@@H](c3ccc(NC(=O)c4nc(C#N)c[nH]4)c(C4=CCC(C)(C)CC4)c3)C1)O2 [Example 6, 4-Cyano-1H-imidazole-2-carboxylic acid[4-[(3-endo)-1,5-bis-methoxymethyl-8-oxa-bicyclo[3.2.1]oct-3-yl]-2-(4,4-dimethyl-cyclohex-1-enyl)-phenyl]-amide]	5	2.7	–
C[C@@H]1C2C=C[C@@H](O2)[C@H](C)[C@@]1(O)c1ccc(NC(=O)c2nc(C#N)c[nH]2)c(C2=CCC(C)(C)CC2)c1 [Example 28]	69	16	–
CC1(C)CC=C(c2nc(C3CC(C)(C)S(=O)(=O)C(C)(C)C3)ccc2NC(=O)c2nc(C#N)c[nH]2)CC1 [Example 21, 4-Cyano-1H-imidazole-2-carboxylic acid[2-(4,4-dimethyl-cyclohex-1-enyl)-6-(2,2,6,6-tetramethyl-1,1-dioxo-hexahydro-1λ^6-thiopyran-4-yl)-pyridin-3-yl]-amide]	18	8.9	–
CC1(C)CC=C(c2nc([C@H]3C[C@@]4(C)O[C@@](C)(C3)[C@@H]3OC(C)(C)O[C@@H]34)ccc2NC(=O)c2nc(C#N)c[nH]2)CC1 [Example 17, 4-Cyano-1H-imidazole-2-carboxylic acid[6-[(3-exo)-6-exo,7-exo-(isopropylidinedioxy)-1,5-dimethyl-8-oxa-bicyclo[3.2.1]oct-3-yl]-2-(4,4-dimethyl-cyclohex-1-enyl)-pyridin-3-yl]-amide]	37	4.6	–
COC(=O)N1[C@@]2(C)C=C[C@]1(C)C[C@@](O)(c1ccc(NC(=O)c3nc(C#N)c[nH]3)c(C3=CCC(C)(C)CC3)c1)C2 [Example 10, 3-(3-exo)-[4-[(4-Cyano-1H-imidazole-2-carbonyl)-amino]-3-(4,4dimethyl-cyclohex-1-enyl)-phenyl]-(3-exo)-3-hydroxy-1,5-dimethyl-8-aza-bicyclo[3.2.1]oct-6-ene-8-carboxylic acid methyl ester]	40	3.5	–
CC1(C)CC=C(c2cc([C@@]3(O)C[C@@]4(C)O[C@@](C)(C3)[C@@H]3OC(C)(C)O[C@@H]34)ccc2NC(=O)c2nc(C#N)c[nH]2)CC1 [Example 11, 4-Cyano-1H-imidazole-2-carboxylic acid[2-(4,4-dimethyl-cyclohex-1-enyl)-4-[(3-exo)-3-hydroxy-1,5-dimethyl-6-exo,7-exo-(dimethylmethylenedioxy)-bicyclo[3.2.1]oct-3-yl]-phenyl]-amide]	2.5	1.8	–
CC1(C)CC=C(c2cc([C@]3(O)C[C@@]4(CO)C=C[C@@](CO)(C3)O4)ccc2NC(=O)c2nc(C#N)c[nH]2)CC1 [Example 2, 4-Cyano-1H-imidazole-2-carboxylic acid[2-(4,4-dimethyl-cyclohex-1-enyl)-4-((3-exo)-3-hydroxy-1,5-bis-hydroxymethyl-8-oxa-bicyclo[3.2.1]oct-6-en-3-yl)-phenyl]-amide]	37	–	–
C[C@@H]1C2CC[C@@H](O2)[C@H](C)[C@@]1(O)c1ccc(NC(=O)c2nc(C#N)c[nH]2)c(C2=CCC(C)(C)CC2)c1 [Example 29, 4-Cyano-N-(2-(4,4dimethylcyclohex-1-enyl)-4-[(3-exo)-3-hydroxy-(2-endo,4endo-dimethyl)-1,5-dimethyl-8-oxabicyclo[3.2.1]octan-3-yl)pheny]-1H-imidazole-2-carboxamide]	88	14	–
CC1(C)CC=C(c2cc(C3CC(C)(C)S(=O)(=O)C(C)(C)C3)ccc2NC(=O)c2nc(C#N)c[nH]2)CC1 [Example 22, 4-Cyano-1H-imidazole-2-carboxylic acid[2-(4,4-dimethyl-cyclohex-1-enyl)-4-(2,2,6,6-tetramethyl-1,1-dioxo-hexahydro-1λ^6-thiopyran-4-yl)-phenyl]-amide]	3.6	2	–
CC1(C)CC=C(c2cc(C3=C[C@@H]4C=C[C@H](C3)O4)ccc2NC(=O)c2ncc(C#N)[nH]2)CC1 [Example 26, N-(4-(8-oxabicyclo[3.2.1]octa-2,6-dien-3-yl)-2-(4,4-dimethylcyclohex-1-enyl)phenyl)-4-cyano-1H-imidazole-2-carboxamide (A) and N-(4-(8-oxabicyclo[3.2.1]octa-3,6-dien-3-yl)-2-(4,4dimethylcyclohex-1-enyl)phenyl)-4cyano-1H-imidazole-2-carboxamide (B)]	–	7.1	59
CC1(C)CC=C(c2cc([C@@]3(O)C[C@@]4(C)O[C@@](C)(C3)[C@H](O)[C@@H]4O)ccc2NC(=O)c2nc(C#N)c[nH]2)CC1 [Example 12]	36	0.66	–
C[C@@H]1C2(C)C=C[C@@](C)(O2)[C@H](C)[C@@]1(O)c1ccc(NC(=O)c2nc(C#N)c[nH]2)c(C2=CCC(C)(C)CC2)c1 [Example 30, 4-Cyano-N-(2-(4,4dimethylcyclohex-1-enyl)-4-[(3-exo)-3-hydroxy-(2-endo,4-endo-dimethyl)-1,5-dimethyl-8-oxabicyclo[3.2.1]oct-6-en-3-yl)phenyl)-1H-imidazole-2-carboxamide]	–	99	–
CC1(C)CC=C(c2cc(C3=C[C@@]4(CO)C=C[C@@](CO)(C3)O4)ccc2NC(=O)c2nc(C#N)c[nH]2)CC1 [Example 3, 4-Cyano-1H-imidazole-2-carboxylic acid[4-(1,5-bis-hydroxymethyl-8-oxa-bicyclo[3.2.1]octa-2,6-dien-3-yl)-2-(4,4-dimethyl-cyclohex-1-enyl)-phenyl]-amide]	9.3	0.65	–
CC1(C)CC=C(c2cc([C@@]3(O)C[C@]4(CO)CC[C@](CO)(C3)O4)ccc2NC(=O)c2nc(C#N)c[nH]2)CC1 [Example 8, 4-Cyano-1H-imidazole-2-carboxylic acid[2-(4,4-dimethyl-cyclohex-1-enyl)-4-[(3-exo)-3-hydroxy-1,5-bis-hydroxymethyl-8-oxa-bicyclo[3.2.1]oct-3-yl]-phenyl]-amide]	41	0.42	–
CC1(C)CC=C(c2cc([C@@]3(O)C[C@]4(C)C=C[C@](C)(C3)O4)ccc2NC(=O)c2nc(C#N)c[nH]2)CC1 [Example 9, 4-Cyano-1H-imidazole-2-carboxylic acid[2-(4,4-dimethyl-cyclohex-1-enyl)-4-((3-exo)-3-hydroxy-1,5-dimethyl-8-oxa-bicyclo[3.2.1]oct-6-en-3-yl)-phenyl]-amide]	4.8	1.1	–
